Laboratory results taken from PubChem BioAssay AID248 (DTP/NCI, 2004).
Several values for one entry are separate records, joined by “and”; a condition that tells them apart may be missing. Equal values may be shown once. Toxic doses and inconclusive results are not listed. Cut-off read from the data, not from the text of the source: active = T/C of 150% or more; inactive = T/C below 125%.

Tested on: L1210 leukemia ip in BDF1 mice, survival T/C
Assay: NCI In Vivo Anticancer Drug Screen. Data for tumor model L1210 Leukemia (intraperitoneal) in B6D2F1 (BDF1) mice
Conditions: endpoint: mean survival time, higher = longer survival
Summary of the method: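 Transplanted-tumor mice were given test agent; controls received vehicle only. Survival readings from the two groups were divided (treated over control).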

[1] = dose: 100.0 mg/kg/injection, schedule: Q01DX005 (ip), vehicle: saline
[2] = dose: 100.0 mg/kg/injection, schedule: Q04DX003 (ip), vehicle: Klucel (hydroxypropylcellulose) (HPC)
[3] = dose: 200.0 mg/kg/injection, schedule: Q04DX003 (ip), vehicle: Klucel (hydroxypropylcellulose) (HPC)
[4] = dose: 400.0 mg/kg/injection, schedule: Q04DX003 (ip), vehicle: Klucel (hydroxypropylcellulose) (HPC)
[5] = dose: 100.0 mg/kg/injection, schedule: Q04DX002 (ip), vehicle: Klucel (hydroxypropylcellulose) (HPC)
[6] = dose: 200.0 mg/kg/injection, schedule: Q04DX002 (ip), vehicle: Klucel (hydroxypropylcellulose) (HPC)
[7] = dose: 400.0 mg/kg/injection, schedule: Q04DX002 (ip), vehicle: Klucel (hydroxypropylcellulose) (HPC)
[8] = dose: 100.0 mg/kg/injection, schedule: Q01DX009 (ip), vehicle: Klucel (hydroxypropylcellulose) (HPC)
[9] = dose: 200.0 mg/kg/injection, schedule: Q01DX009 (ip), vehicle: Klucel (hydroxypropylcellulose) (HPC)
[10] = dose: 400.0 mg/kg/injection, schedule: Q01DX009 (ip), vehicle: Klucel (hydroxypropylcellulose) (HPC)
[11] = dose: 100.0 mg/kg/injection, schedule: Q01DX009 (ip), vehicle: saline with Tween-80
[12] = dose: 100.0 mg/kg/injection, schedule: Q04DX003 (ip), vehicle: saline with Tween-80
[13] = dose: 200.0 mg/kg/injection, schedule: Q01DX009 (ip), vehicle: saline with Tween-80
[14] = dose: 200.0 mg/kg/injection, schedule: Q04DX003 (ip), vehicle: saline with Tween-80
[15] = dose: 400.0 mg/kg/injection, schedule: Q01DX009 (ip), vehicle: saline with Tween-80
[16] = dose: 400.0 mg/kg/injection, schedule: Q04DX003 (ip), vehicle: saline with Tween-80
[17] = dose: 200.0 mg/kg/injection, schedule: Q01DX005 (ip), vehicle: saline

Measured: T/C

COCCN(CCOC)/N=N/c1nc[nH]c1C(N)=O
inactive: dose: 50.0 mg/kg/injection, schedule: Q01DX001 (ip), vehicle: water 104 % of control | dose: 50.0 mg/kg/injection, schedule: Q04DX003 (ip), vehicle: water 98 % of control | dose: 100.0 mg/kg/injection, schedule: Q01DX001 (ip), vehicle: water 102 % of control | dose: 100.0 mg/kg/injection, schedule: Q04DX003 (ip), vehicle: water 107 % of control | dose: 200.0 mg/kg/injection, schedule: Q01DX001 (ip), vehicle: water 101 % of control | dose: 200.0 mg/kg/injection, schedule: Q04DX003 (ip), vehicle: water 100 % of control | dose: 400.0 mg/kg/injection, schedule: Q01DX001 (ip), vehicle: water 102 % of control | dose: 400.0 mg/kg/injection, schedule: Q04DX003 (ip), vehicle: water 111 % of control

OCC1OC(n2cnc3c([Se])ncnc32)C(O)C1O (centres undefined)
inactive: [1] 105 % of control

O=C(/C=C\c1ccccc1[N+](=O)[O-])C(=O)/C=C/c1ccccc1[N+](=O)[O-]
inactive: dose: 100.0 mg/kg/injection, schedule: Q01DX001 (ip), vehicle: Klucel (hydroxypropylcellulose) (HPC) 93 % of control | dose: 200.0 mg/kg/injection, schedule: Q01DX001 (ip), vehicle: Klucel (hydroxypropylcellulose) (HPC) 92 % of control | dose: 400.0 mg/kg/injection, schedule: Q01DX001 (ip), vehicle: Klucel (hydroxypropylcellulose) (HPC) 88 % of control

CCCCCCCCCCCCCCCCCCSCCO
inactive: [2] 100 % of control and 90 % of control | [3] 102 % of control | [4] 92 % of control and 100 % of control

CC(C)OC(=S)SCC(=O)c1ccccc1
inactive: [5] 92 % of control | [6] 101 % of control | [7] 99 % of control

COC(OC)c1nc(N)[nH]c(=O)c1Cc1cccc2ccccc12
inactive: [5] 97 % of control | [6] 86 % of control | [7] 105 % of control

CCOC(=O)C(C)(Br)C(Br)c1ccc([N+](=O)[O-])cc1 (centres undefined)
inactive: [8] 96 % of control | [2] 101 % of control | [9] 93 % of control | [3] 101 % of control | [10] 98 % of control | [4] 108 % of control

COc1ccc(CCNC(=O)Cc2ccc(OC)c(OC)c2)cc1OC
inactive: dose: 12.5 mg/kg/injection, schedule: Q04DX003 (ip), vehicle: saline with Tween-80 94 % of control | dose: 25.0 mg/kg/injection, schedule: Q04DX003 (ip), vehicle: saline with Tween-80 110 % of control | dose: 50.0 mg/kg/injection, schedule: Q04DX003 (ip), vehicle: saline with Tween-80 100 % of control | dose: 100.0 mg/kg/injection, schedule: Q01DX001 (ip), vehicle: saline 98 % of control | [8] 94 % of control | dose: 100.0 mg/kg/injection, schedule: Q01DX009 (ip), vehicle: saline sonified 100 % of control | [11] 86 % of control | [2] 105 % of control | [12] 107 % of control | dose: 200.0 mg/kg/injection, schedule: Q01DX001 (ip), vehicle: saline 92 % of control | [9] 96 % of control | dose: 200.0 mg/kg/injection, schedule: Q01DX009 (ip), vehicle: saline sonified 100 % of control | [13] 95 % of control | [3] 112 % of control | [14] 94 % of control | dose: 400.0 mg/kg/injection, schedule: Q01DX001 (ip), vehicle: saline 93 % of control | [10] 98 % of control | dose: 400.0 mg/kg/injection, schedule: Q01DX009 (ip), vehicle: saline sonified 90 % of control | [15] 91 % of control | [4] 104 % of control | [16] 92 % of control

COC(=O)C(CSCSC)NC(=O)/C=C/c1cc(OC)ccc1OC (centres undefined)
inactive: [11] 87 % of control | [12] 94 % of control | [13] 93 % of control | [14] 88 % of control | [15] 93 % of control | [16] 94 % of control

O=c1[nH]ncc2c1[nH]c1cccc(Cl)c12
inactive: dose: 200.0 mg/kg/injection, schedule: Q04DX003 (ip), vehicle: carboxymethylcellulose (CMC) 88 % of control | dose: 400.0 mg/kg/injection, schedule: Q04DX003 (ip), vehicle: carboxymethylcellulose (CMC) 92 % of control

CS/C(N)=N\S(=O)(=O)c1ccc(NC(C)=O)cc1
inactive: [12] 93 % of control | [14] 90 % of control | [16] 96 % of control

CCOC(=O)C1CC(O)CN1 (centres undefined)
inactive: dose: 100.0 mg/kg/injection, schedule: Q04DX003 (ip), vehicle: saline sonified 97 % of control | dose: 200.0 mg/kg/injection, schedule: Q04DX003 (ip), vehicle: saline sonified 100 % of control | dose: 400.0 mg/kg/injection, schedule: Q04DX003 (ip), vehicle: saline sonified 87 % of control

CNCCC(=O)NCC1C(c2ccccc2)C1c1ccccc1 (centres undefined)
inactive: dose: 6.25 mg/kg/injection, schedule: Q04DX002 (ip), vehicle: saline with Tween-80 97 % of control | dose: 12.5 mg/kg/injection, schedule: Q04DX002 (ip), vehicle: saline with Tween-80 93 % of control and 96 % of control | dose: 25.0 mg/kg/injection, schedule: Q04DX002 (ip), vehicle: saline with Tween-80 100 % of control | dose: 50.0 mg/kg/injection, schedule: Q04DX002 (ip), vehicle: saline with Tween-80 91 % of control | dose: 100.0 mg/kg/injection, schedule: Q04DX002 (ip), vehicle: saline with Tween-80 93 % of control and 88 % of control

CC(=O)OCC1OC(Sc2ncc3cnccn23)C(OC(C)=O)C(OC(C)=O)C1OC(C)=O (centres undefined)
inactive: [1] 88 % of control | [17] 93 % of control

COc1cc2c(cc1OC)C13CCN4C=C5CCOC6CC(=O)N2C1C6C5CC43 (centres undefined)
inactive: dose: 75.0 mg/kg/injection, schedule: Q01DX001 (ip), vehicle: other 96 % of control

CC1(C)OC2C(C(=O)NO)OC(n3cnc4c(N)ncnc43)C2O1 (centres undefined)
inactive: [1] 101 % of control | [17] 101 % of control

COC(=O)c1ccc(C)cc1C(=O)OC
inactive: dose: 50.0 mg/kg/injection, schedule: Q01DX009 (ip), vehicle: saline with Tween-80 107 % of control | [11] 111 % of control | [13] 107 % of control

COc1ccc(/C=N/NC(=O)COCC(=O)N/N=C/c2ccc(OC)c(OC)c2)cc1OC
inactive: [8] 101 % of control | [9] 95 % of control | [10] 92 % of control

CC(C)c1ccccc1OC(=O)NC1CCCCC1
inactive: [5] 96 % of control | [6] 110 % of control | [7] 104 % of control

Cc1nn(C)c(Cl)c1[N+](=O)[O-]
inactive: [8] 102 % of control | [5] 102 % of control | [9] 97 % of control | [6] 91 % of control | [10] 100 % of control | [7] 94 % of control

Cc1cc(C)c(-c2c(C)cc(C)c([N+](=O)[O-])c2C)c(C)c1N
inactive: dose: 75.0 mg/kg/injection, schedule: Q01DX009 (ip), vehicle: Klucel (hydroxypropylcellulose) (HPC) 100 % of control | dose: 75.0 mg/kg/injection, schedule: Q04DX003 (ip), vehicle: Klucel (hydroxypropylcellulose) (HPC) 98 % of control | dose: 150.0 mg/kg/injection, schedule: Q01DX009 (ip), vehicle: Klucel (hydroxypropylcellulose) (HPC) 105 % of control | dose: 150.0 mg/kg/injection, schedule: Q04DX003 (ip), vehicle: Klucel (hydroxypropylcellulose) (HPC) 101 % of control | dose: 300.0 mg/kg/injection, schedule: Q01DX009 (ip), vehicle: Klucel (hydroxypropylcellulose) (HPC) 100 % of control | dose: 300.0 mg/kg/injection, schedule: Q04DX003 (ip), vehicle: Klucel (hydroxypropylcellulose) (HPC) 93 % of control

COc1cc(N)c2ncsc2c1
inactive: dose: 100.0 mg/kg/injection, schedule: Q01DX009 (ip), vehicle: saline 97 % of control | [5] 94 % of control | dose: 200.0 mg/kg/injection, schedule: Q01DX009 (ip), vehicle: saline 102 % of control | [6] 88 % of control | [7] 91 % of control

O=C(COc1cccc(Cl)c1)NCc1ccc([N+](=O)[O-])cc1
inactive: dose: 100.0 mg/kg/injection, schedule: Q01DX001 (ip), vehicle: saline with Tween-80 96 % of control | [11] 94 % of control | dose: 200.0 mg/kg/injection, schedule: Q01DX001 (ip), vehicle: saline with Tween-80 93 % of control | [13] 100 % of control | dose: 400.0 mg/kg/injection, schedule: Q01DX001 (ip), vehicle: saline with Tween-80 101 % of control | [15] 97 % of control
